How the values were obtained:
[1] = test system: pheromone glands; experiment: de novo pheromone production by isolated pheromone glands in vitro (radiolabel incorporation); assay type: cell-based, Helicoverpa (Heliothis) armigera; conditions: for inhibition of Hez-PBAN-activated sex pheromone production: Hez-PBAN 0.05 μM, inhibitor in μM range, FIG. 3
Text: (§1) Two distinct assay systems were applied in order to determine the inhibition of PBAN-induced pheromone production, elicited by aryloxyphenoxy propionates and cyclohexandione oximes such as diclofop, diclofop-methyl and tralkoxydim. The first assay monitors de novo pheromone production by isolated pheromone glands in vitro according to the method of Rafaeli and Gileadi^7 (Experimental Section). The second assay, monitors sex pheromone production in vivo by decapitated female moths that are incapable of pheromone production unless stimulated by PBAN (Experimental section).
Intersegmental membranes (pheromone glands) between the eighth and ninth abdominal segments were removed from 2-3 day old virgin females. After 1 h preincubation in Pipes buffered incubation medium (pH 6.6), pheromone glands were dried on tissue paper and then transferred individually to 10 μl incubation medium containing 0.25 μCi [1-^14C]-acetate (56 mCi/mmole, NEN, Boston, USA) in the presence or absence of Hez-PBAN (Peninsula Labs, Belmont, Calif., USA) and in the additional presence or absence of either diclofop acid or diclofop methyl ester (FIG. 3).
Incubations were performed for 3 h at room temperature. In order to measure the incorporation of radiolabel from [1-^14C] sodium acetate, the glands were extracted in 200 μl hexane for 0.5 h at room temperature and a 100 μl aliquot of the upper hexane phase was measured in a β-counter. Relative levels of incorporation into the pheromone component were determined using HPLC analysis as reported previously^9 using a Vydac C18 reversed phase column and a linear gradient from 40-55% acetonitrile. Fractions were collected every minute and radioactivity determined. The radioactive elution profile (shown in FIG. 8) was compared to known elution times of standard palmitic acid, Z11-hexadecenol and the main pheromone product of H. armigera^10, Z11-hexadecenal (Sigma, USA). In some experiments [1-^14C]-acetyl CoA (Amersham Pharmacia Biotech, UK.) or [9, 10-^3H]-palmitic acid (Life Science Products, Inc, Texas, USA) were substituted for [1-^14C]-acetate in order to measure relative incorporation into pheromone from these precursors. The effect of palmitoyl CoA (Sigma) was also tested in a different set of experiments using [^14C]-acetate as precursor (as shown in FIG. 2).

[2] = test system: bees and beneficial insects; conditions: field conditions; cited from earlier work
[3] = test system: decapitated female moths; experiment: sex pheromone production in vivo by decapitated female moths; design: species or system Helicoverpa (Heliothis) armigera; conditions: diclofop acid 10 μmol/female, PBAN 1 pmol/female, FIG. 7
Text: as §1
In vivo sex pheromone production by female moths was determined in 2-day old females. The females were decapitated during the photophase of day 1 and subsequently maintained for an additional 24 h, after which they were injected with either physiological saline (control) or 1 pmol/moth Hez-PBAN in saline, and in the additional presence or absence of diclofop acid. Ovipositor tips (containing pheromone glands) were removed 2 h after injection and extracted for 10 min in hexane, containing 25 ng tridecanyl acetate (Sigma, USA) as internal standard. […] Z11-hexadecenal was quantified using the internal standard quantification methods as described previously^9.

[4] = test system: ACCase enzyme; experiment: Inhibition of ACCase (partially purified enzyme from pheromone glands); assay type: biochemical, Helicoverpa (Heliothis) armigera; conditions: in vitro, enzyme from pheromone producing tissue, FIG. 6
Text: The […] enzyme was extracted from pheromone glands separated on TMAE column and the eluted enzyme was used. Acetyl CoA was used as a substrate that requires HCO3^- where radiolabeled HCO3^- was used. In the presence of the enzyme, the substrate will be converted to radiolabeled malonyl CoA (see FIG. 1). Therefore, the difference in the level of incorporation of the radiolabeled malonyl CoA in the presence and absence of the […] enzyme was used to obtain the activity level of endogenous […] in the presence or absence of herbicides (FIG. 6).

SMILES: COC(=O)C(C)Oc1ccc(Oc2ccc(Cl)cc2Cl)cc1 (centres unmarked) [diclofop-methyl]
- inhibition of Hez-PBAN-activated sex pheromone production ([1]; in vitro): significantly inhibits pheromone production to the same extent as the acid

SMILES: CCO/N=C(\CC)C1=C(O)CC(c2c(C)cc(C)cc2C)CC1=O (centres unmarked) [tralkoxydim]
- concentration at which the inhibitory effect occurs ([1]; in vitro, Hez-PBAN 0.01 μM, FIG. 5): 100 µM

SMILES: CCCCCCCCCCCCCCCC(=O)SCCNC(=O)CCNC(=O)[C@H](O)C(C)(C)COP(=O)(O)OP(=O)(O)OC[C@H]1O[C@@H](n2cnc3c(N)ncnc32)[C@H](O)[C@@H]1OP(=O)(O)O [palmitoyl-CoA]
- effect on production of pheromone ([1]; in vitro, 0.01 μM Hez-PBAN, 14C-acetate, FIG. 2): inhibiting its biosynthesis

SMILES: CC(Oc1ccc(Oc2ccc(Cl)cc2Cl)cc1)C(=O)O (centres unmarked) [diclofop acid]
- inhibition of Hez-PBAN-activated sex pheromone production ([1]; in vitro): significantly inhibits
- toxicity to bees and beneficial insects [2]: relatively non-toxic
- inhibition of in vivo synthesis of pheromone Z11-hexadecenal induced by PBAN [3]: inhibited the production of the pheromone
- inhibition of partially purified ACCase enzyme activity [4]: may inhibit directly

SMILES: CCCCCCCCCCCCCCCC(=O)O [palmitic acid]
- effect on the pheromonotropic action of PBAN ([1]; addition of palmitic acid, data not shown): did not affect

Reference: patent US20060039943A1, “Acetyl-CoA carboxylase inhibitors for use as pesticides” (Yissum Research Development Company fo the Hebrew University, priority 2003, published 2006)
